The results in this text go back to patent US20090030024A1, “THIAZOLES AS FUNGICIDES” (priority 2005, published 2009).

Marks after values point to notes of the source that are not given here.

The nature of one series: logP determination by retention times (calibration with alkan-2-ones).
Settings: not given
In general, chromatographic logP refers to a lipophilicity value derived from retention on a column. Low readings indicate lower lipophilicity, high ones higher lipophilicity. Turning to `CSc1nc(C)c(-c2ccnc(Nc3ccc(N(C)C)c(Cl)c3)n2)s1` [Example 61, 2-chloro-N1,N1-dimethyl-N4-{4-[4-methyl-2-(methylthio)-1,3-thiazol-5-yl]pyrimidin-2-yl}benzene-1,4-diamine], the chromatographic logP was found to be 2.74.
Turning to `Cc1nc(C2CCCCC2)sc1-c1ccnc(Nc2cccc(C(=O)O)c2)n1` [Example 145, 3-{[4-(2-cyclohexyl-4-methyl-1,3-thiazol-5-yl)pyrimidin-2-yl]amino}benzoic acid], the chromatographic logP was determined as 3.27.
Turning to `COc1ccc(Nc2nccc(-c3sc(C4CCCCC4)nc3C)n2)cn1` [Example 217, 4-(2-cyclohexyl-4-methyl-1,3-thiazol-5-yl)-N-(6-methoxypyridin-3-yl)pyrimidine-2-amine], the chromatographic logP turned out to be 3.86.
The same measure, in the same setting: the value for `COc1cc(Nc2nccc(-c3sc(SC)nc3C)n2)cc(OC)c1OC` [Example 316, 4-[4-methyl-2-(methylthio)-1,3-thiazol-5-yl]-N-(3,4,5-trimethoxyphenyl)pyrimidine-2-amine] was 2.76.
The same measure, in the same setting: the value for `Cc1nc(C(F)(F)F)c(-c2ccnc(Nc3ccccc3)n2)s1` [Example 312, 4-[2-methyl-4-(trifluoromethyl)-1,3-thiazol-5-yl]-N-phenylpyrimidine-2-amine] was 3.45; that for `COCc1nc(C)c(-c2ccnc(Nc3ccccc3)n2)s1` [Example 301, 4-[2-(methoxymethyl)-4-methyl-1,3-thiazol-5-yl]-N-phenylpyrimidine-2-amine] was 3.01.
Same read-out and setting: the value for `Cc1nc(C2CC2)sc1-c1ccnc(Nc2cccc(C(=O)O)c2)n1` [Example 147, 3-{[4-(2-cyclopropyl-4-methyl-1,3-thiazol-5-yl)pyrimidin-2-yl]amino}benzoic acid] was 2.27; that for `Cc1nc(C(C)C)sc1-c1ccnc(Nc2cccc([N+](=O)[O-])c2)n1` [Example 246, 4-(2-isopropyl-4-methyl-1,3-thiazol-5-yl)-N-(3-nitrophenyl)pyrimidine-2-amine] was 3.55.
In turn, `Cc1nc(C)c(-c2ccnc(Nc3ccc(F)c(C)c3)n2)s1` [Example 185, 4-(2,4-dimethyl-1,3-thiazol-5-yl)-N-(4-fluoro-3-methylphenyl)pyrimidine-2-amine] had a chromatographic logP of 3.07.

Still in this series, the particulars now being: * HPLC reversed-phase C18, 40° C., mobile phase 0.1% aqueous formic acid and acetonitrile, linear gradient 10% to 95% acetonitrile.
With `COC(=O)Nc1ccc(Nc2nccc(-c3sc(N(C)C)nc3C(F)(F)F)n2)cc1` [Example 694, methyl-[4-({4-[2-(dimethylamine)-4-(trifluoromethyl)-1,3-thiazol-5-yl]pyrimidin-2-yl}amino)phenyl]carbamate], the logP is reported as 3.04*.
The same measure, in the same setting: the value for `CN(C)c1nc(C(F)(F)F)c(-c2ccnc(Nc3ccc4c(c3)OC(F)(F)O4)n2)s1` [Example 779, N-(2,2-difluoro-1,3-benzodioxol-5-yl)-4-[2-(dimethylamine)-4-(trifluoromethyl)-1,3-thiazol-5-yl]pyrimidine-2-amine] was 4.72*.

The series is the same for the next values; noted with them: HPLC, reversed-phase C 18, EEC Directive 79/831 Annex V.A8; method *: 40° C., 0.1% aqueous formic acid and acetonitrile, linear gradient 10% to 95% acetonitrile.
Turning to `CN(C)c1nc(C(F)(F)F)c(-c2ccnc(Nc3ccccc3)n2)s1` [Example 292, 4-[2-(dimethylamine)-4-(trifluoromethyl)-1,3-thiazol-5-yl]-N-phenylpyrimidine-2-amine], the logP is on record as 3.88*.

The series is the same for the next values; noted with them: logP(HCOOH), HCOOH.
Take `Cc1nc2c(s1)C(=O)CCC2` [2-Methyl-7-oxo-4,5,6,7-tetrahydrobenzothiazole]: the chromatographic logP worked out at 1.08.

The series is the same for the next values; noted with them: logP, * HPLC reversed-phase C18, 40° C., mobile phase 0.1% aqueous formic acid and acetonitrile, linear gradient 10% to 95% acetonitrile.
`CC(=O)N(Cc1cccc(Nc2nccc(-c3sc(C4CC4)nc3C)n2)c1)C(C)=O` [Example 621, N-acetyl-N-(3-{[4-(2-cyclopropyl-4-methyl-1,3-thiazol-5-yl)pyrimidin-2-yl]amino}benzyl)acetamide] came in with a chromatographic logP of 1.87.
The same measure, in the same setting: the value for `COCc1nc(C)c(-c2ccnc(Nc3ccc(F)c(C)c3)n2)s1` [Example 478, N-(4-fluoro-3-methylphenyl)-4-[2-(methoxymethyl)-4-methyl-1,3-thiazol-5-yl]pyrimidine-2-amine] was 3.14; that for `COCCNc1nc(C)c(-c2ccnc(Nc3ccc(N4CCCC4=O)cc3)n2)s1` [Example 752, 1-{4-[(4-{2-[(2-methoxyethyl)amino]-4-methyl-1,3-thiazol-5-yl}pyrimidin-2-yl)amino]phenyl}pyrrolidin-2-one] was 1.51; that for `Cc1nc(C)c(-c2ccnc(Nc3ccc(N4CCCC4=O)cc3)n2)s1` [Example 749, 1-(4-{[4-(2,4-dimethyl-1,3-thiazol-5-yl)pyrimidin-2-yl]amino}phenyl)pyrrolidin-2-one] was 1.99.
As for `Cc1nc(C(F)(F)F)c(-c2ccnc(Nc3ccc(F)c(F)c3)n2)s1` [Example 705, N-(3,4-difluorophenyl)-4-[2-methyl-4-(trifluoromethyl)-1,3-thiazol-5-yl]pyrimidine-2-amine], the chromatographic logP is 3.76.
Same read-out and setting: the value for `COCCNc1nc(C)c(-c2ccnc(Nc3ccc(NC(C)=O)cc3)n2)s1` [Example 683, N-{4-[(4-{2-[(2-methoxyethyl)amino]-4-methyl-1,3-thiazol-5-yl}pyrimidin-2-yl)amino]phenyl}acetamide] was 1.35; that for `Cc1nc(C(C)C)sc1-c1ccnc(Nc2ccc(F)cc2)n1` [Example 485, N-(4-fluorophenyl)-4-(2-isopropyl-4-methyl-1,3-thiazol-5-yl)pyrimidine-2-amine] was 3.58.
Still for that read-out and setting: the value for `COc1ccc(Nc2nccc(-c3sc(NCC4CCCO4)nc3C)n2)cn1` (stereo not drawn) [Example 523, N-(6-methoxypyridin-3-yl)-4-{4-methyl-2-[(tetrahydrofuran-2-ylmethyl)amino]-1,3-thiazol-5-yl}pyrimidine-2-amine] was 1.57.
`CC(=O)Nc1ccc(Nc2nccc(-c3sc(C)nc3C(F)(F)F)n2)cc1` [Example 698, N-[4-({4-[2-methyl-4-(trifluoromethyl)-1,3-thiazol-5-yl]pyrimidin-2-yl}amino)phenyl]acetamide]: the chromatographic logP is 2.26.
Still for that read-out and setting: the value for `Cc1nc(C(F)(F)F)c(-c2ccnc(Nc3ccc4c(c3)OCO4)n2)s1` [Example 703, N-1,3-benzodioxol-5-yl-4-[2-methyl-4-(trifluoromethyl)-1,3-thiazol-5-yl]pyrimidine-2-amine] was 3.21; that for `COCCNc1nc(C)c(-c2ccnc(Nc3cccc(O)c3)n2)s1` [Example 690, 3-[(4-{2-[(2-methoxyethyl)amino]-4-methyl-1,3-thiazol-5-yl}pyrimidin-2-yl)amino]phenol] was 1.38.
In the case of `Cc1nc(NCC2CCCO2)sc1-c1ccnc(Nc2ccc(N3CCCC3=O)cc2)n1` (stereo not drawn) [Example 720, 1-{4-[(4-{4-methyl-2-[(tetrahydrofuran-2-ylmethyl)amino]-1,3-thiazol-5-yl}pyrimidin-2-yl)amino]phenyl}pyrrolidin-2-one], the chromatographic logP was 1.6.
Same read-out and setting: the value for `COCCNc1nc(C)c(-c2ccnc(Nc3ccc4c(c3)OCO4)n2)s1` [Example 802, N-1,3-benzodioxol-5-yl-4-{2-[(2-methoxyethyl)amino]-4-methyl-1,3-thiazol-5-yl}pyrimidine-2-amine] was 1.65; that for `COCC(C)Nc1nc(C)c(-c2ccnc(Nc3ccc(F)c(C)c3)n2)s1` (stereo not drawn) [Example 482, N-(4-fluoro-3-methylphenyl)-4-{2-[(2-methoxy-1-methylethyl)amino]-4-methyl-1,3-thiazol-5-yl}pyrimidine-2-amine] was 2.19; that for `COC(=O)Nc1ccc(Nc2nccc(-c3sc(C)nc3C(F)(F)F)n2)cc1` [Example 693, methyl-[4-({4-[2-methyl-4-(trifluoromethyl)-1,3-thiazol-5-yl]pyrimidin-2-yl}amino)phenyl]carbamate] was 2.7.
In the case of `CC(=O)c1cccc(Nc2nccc(-c3sc(-c4cccnc4)nc3C)n2)c1` [Example 734, 1-(3-{[4-(4-methyl-2-pyridin-3-yl-1,3-thiazol-5-yl)pyrimidin-2-yl]amino}phenyl)ethanone], the chromatographic logP worked out at 2.56.

The series is the same for the next values; noted with them: logP, ** HPLC reversed-phase C18, 43° C., mobile phase 0.1% aqueous phosphoric acid and acetonitrile, linear gradient 10% to 95% acetonitrile.
In the case of `Cc1nc(C)c(-c2ccnc(Nc3cccc(Cl)c3)n2)s1` [Example 421, N-(3-chlorophenyl)-4-(2,4-dimethyl-1,3-thiazol-5-yl)pyrimidine-2-amine], the chromatographic logP is 3.11.
On the same count and under the same terms, the value for `CC(=O)Nc1nc(C)c(-c2ccnc(Nc3cccc(Cl)c3)n2)s1` [Example 515, N-(5-{2-[(3-chlorophenyl)amino]pyrimidin-4-yl}-4-methyl-1,3-thiazol-2-yl)acetamide] was 2.49.

The same series, now with this note: logP, values marked *: HPLC on reversed-phase C 18, 40° C., mobile phase 0.1% aqueous formic acid and acetonitrile, linear gradient 10% to 95% acetonitrile.
`Cc1nc(C(C)(C)C)sc1-c1ccnc(Nc2ccc(F)cc2)n1` [Example 883, 4-(2-tert-butyl-4-methyl-1,3-thiazol-5-yl)-N-(4-fluorophenyl)pyrimidine-2-amine] registered a chromatographic logP of 4.18.
The same measure, in the same setting: the value for `Cc1nc(C(C)C)sc1-c1nc(Nc2ccccc2)ncc1Cl` [Example 903, 5-chloro-4-(2-isopropyl-4-methyl-1,3-thiazol-5-yl)-N-phenylpyrimidine-2-amine] was 4.27; that for `COCCCNc1nc(C)c(-c2ccnc(Nc3cccc(NC(C)=O)c3)n2)s1` [Example 853, N-{3-[(4-{2-[(3-methoxypropyl)amino]-4-methyl-1,3-thiazol-5-yl}pyrimidin-2-yl)amino]phenyl}acetamide] was 1.44.
Still for that read-out and setting: the value for `CCc1nc(C)c(-c2nc(Nc3ccccc3)ncc2Cl)s1` [Example 876, 5-chloro-4-(2-ethyl-4-methyl-1,3-thiazol-5-yl)-N-phenylpyrimidine-2-amine] was 3.78.
Same read-out and setting: for `Cc1nc(NCC2CCCO2)sc1-c1ccnc(Nc2ccc(F)cc2F)n1` (stereo not drawn) [Example 809, N-(2,4-difluorophenyl)-4-{4-methyl-2-[(tetrahydrofuran-2-ylmethyl)amino]-1,3-thiazol-5-yl}pyrimidine-2-amine] the value was 2.09.
